In paper PMC5724825, “Structure-activity studies of Mdm2/Mdm4-binding stapled peptides comprising non-natural amino acids” (PLoS ONE, 2017):
Changes are numbered by the printed parent chain. Bridge positions count the residues as written; N and C are the ends. Square brackets hold non-standard residues; d marks the D form. Trp(6-Cl) = N[C@@H](Cc1c[nH]c2cc(Cl)ccc12)C(=O)O; Trp(6-Me) = Cc1ccc2c(C[C@H](N)C(=O)O)c[nH]c2c1; S8 = C=CCCCCCC[C@](C)(N)C(=O)O; S5 = C=CCCC[C@](C)(N)C(=O)O; FAM = carboxyfluorescein

Key:
Mdm4 (amino acids 1–108) [1] = molecular target: T1, Mdm4 (amino acids 1–108) (Homo sapiens, UniProt O15151); experiment: Competitive fluorescence anisotropy, Mdm4; format: binding; conditions: from Table 2
T1 construct: Mdm4 and Mdm4-L98V (amino acids 1–108) were cloned with C-terminal 6xHIS tags; made in house; host or cells: Escherichia coli BL21(DE3)
T1 sequence (O15151 1-108): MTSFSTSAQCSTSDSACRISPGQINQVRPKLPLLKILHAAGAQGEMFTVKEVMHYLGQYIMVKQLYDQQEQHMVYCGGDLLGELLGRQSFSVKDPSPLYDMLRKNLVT
Procedure: (§1) Mdm4 and Mdm4-L98V (amino acids 1–108) were cloned with C-terminal 6xHIS tags. The constructs were then transformed into Escherichia coli BL21(DE3) (Invitrogen) competent cells. Cells were grown in LB medium at 37°C and induced at OD600 nm of 0.6 at 25°C with 0.25 mM IPTG and at 16°C with 1 mM IPTG for Mdm4-WT and Mdm4-L98V respectively. After overnight induction, the cells were harvested by centrifugation, resuspended in His-binding buffer (50 mM Bis-Tris pH 6.5, 1M NaCl, 20 mM imidazole, 0.5 mM DTT), and lysed by sonication. After centrifugation for 60 mins at 19,000 × g at 4°C, the cell lysate was then applied to a 1 mL HisTrap FF column (GE Healthcare) pre-equilibrated in His-binding buffer, washed and eluted off the column with His-elution buffer (50 mM Bis-Tris pH 6.5, 1M NaCl, 500 mM imidazole, 0.5 mM DTT) with a gradient elution of 35% elution buffer in 5 column volumes, followed by 35% to 100% elution buffer over 80 column volumes. Protein purity as assessed by SDS-PAGE was ~ 90%, and the fractions were pooled and buffer exchanged into 50 mM Bis-Tris pH 6.5, 350 mM NaCl, 1 mM DTT. The proteins were then concentrated using Amicon-Ultra (3 kDa MWCO) concentrator (Millipore).
(§2) Fluorescence anisotropy assays were performed as previously described. Titrations of purified Mdm2/Mdm4 proteins were incubated with 50 nM of carboxyfluorescein (FAM) labelled 12–1 peptide (FAM-[…]-NH2) to initially determine the dissociation constants for the peptide-protein interactions. Apparent Kds of peptides were next determined by competitive fluorescence anisotropy. Titrations of peptides were carried out at constant concentrations of Mdm2/Mdm2-M62A/Mdm4 (150 nM), Mdm4-L98V (250 nM) and labelled peptide (50 nM). Anisotropy measurements were carried out using the Envision Multilabel Reader (PerkinElmer). All experiments were carried out in PBS (2.7 mM KCl, 137 mM NaCl, 10 mM Na2HPO4 and 2 mM KH2PO4, pH 7.4), 4% DMSO and 0.1% Tween-20 buffer. All titrations were carried out in duplicate (3–6 repeats). Curve fitting was carried out using Prism (GraphPad).

Mdm2 (amino acids 6–125) [2] = molecular target: T2, Mdm2 (amino acids 6–125) (Homo sapiens, UniProt Q00987); experiment: Competitive fluorescence anisotropy, Mdm2; format: binding; set-up: Mdm2 (amino acids 6–125) was cloned as a GST-fusion protein; GST (N, cleaved yes); made in house; host or cells: Escherichia coli BL21(DE3) pLysS; conditions: from Table 2
[3] = system: activation of the p53 tumour suppressor; conditions: earlier series; cited from earlier work
Source text: We have previously described a series of peptide antagonists targeting Mdm2, a key regulator of p53 function. In common with all reported high-affinity binders, these peptides incorporate a signature p53-derived interacting motif comprising F, W and L residues that respectively dock into discrete hydrophobic pockets in the N-terminal domain of Mdm2 [13]. This series exemplified significant enhancements in binding affinity, cellular uptake and activity arising from incorporation of a hydrocarbon tether and replacement of the tryptophan with the non-natural L-6-chlorotryptophan. The ...

Mdm2 (amino acids 6–125) [4] = molecular target: T2, Mdm2 (amino acids 6–125); set-up: Mdm2 (amino acids 6–125) was cloned as a GST-fusion protein; GST (N, cleaved yes); made in house; host or cells: Escherichia coli BL21(DE3) pLysS; conditions: earlier series; cited from earlier work
Source text: In common with all reported high-affinity binders, these peptides incorporate a signature p53-derived interacting motif comprising F, W and L residues that respectively dock into discrete hydrophobic pockets in the N-terminal domain of Mdm2 [13]. […] The ...

[5] = system: p53 transactivation in T22 cells; experiment: p53 reporter assay in T22 cells (β galactosidase); format: cell-based; conditions: 5, 10, 20 μM peptide, 18 hours, DMEM with 10% FBS
Procedure: Dulbecco’s Minimal Eagle Medium (DMEM) with 10% fetal bovine serum (FBS) and penicillin/streptomycin was used to maintain cells. T22 cells stably transfected with a p53 responsive β galactosidase reporter, were seeded into 96-well plates (8000 cells per well). 24 hours later, cells were treated with compounds/peptide for 18 hours in DMEM with 10% FBS. β galactosidase activity was measured using the FluoReporter LacZ/Galactosidase Quantitation kit (Invitrogen). Measurements were carried out on a Safire II multiplate reader (TECAN). All experiments were carried out in duplicate.
Fig 4 T22 reporter assay measuring p53 transactivation. A. Cells were treated with increasing concentrations (5, 10, 20 μM) of indicated peptide ligands and p53 activity determined by measuring β galactosidase levels. The small molecule Mdm2 inhibitor Nutlin (10 μM) was used as positive control. Activity is expressed as fold increase over cells treated with DMSO vehicle only. Values represent average ± SD (n = 2). * p < 0.001 compared to DMSO control. B. Lactate dehydrogenase release assay indicating no significant membrane disruption observed for increasing concentrations (2, 10, 20 μM) of indicated ligands compared to vehicle (DMSO) and positive maximum lysis control (MLC). Values represent average ± SD (n = 3).

[6] = molecular target: T3, Mdm4-L98V (amino acids 1–108) (Homo sapiens, UniProt O15151, L98V); experiment: Competitive fluorescence anisotropy, Mdm4-L98V; format: binding; conditions: from Table 2
T3 construct: Mdm4 and Mdm4-L98V (amino acids 1–108) were cloned with C-terminal 6xHIS tags; made in house; host or cells: Escherichia coli BL21(DE3)
T3 sequence (O15151 1-108 L98V): T1 sequence (O15151 1-108) with L98V
Procedure: as §1, §2

[7] = molecular target: T4, Mdm2-M62A (amino acids 6–125) (UniProt Q00987 6-125, M62A); experiment: fluorescence polarisation; competitive fluorescence anisotropy, apparent Kd; peptides titrated at constant Mdm2/Mdm2-M62A/Mdm4 (150 nM) or Mdm4-L98V (250 nM) and FAM-labelled 12-1 peptide (50 nM); PBS pH 7.4, 4% DMSO, 0.1% Tween-20; conditions: both partners purified
T4 construct: Cloned in pGEX-6P-1; source: E. coli BL21(DE3) pLysS, purified (GSTrap, on-column PreScission cleavage, Resource S cation exchange)

Mdm2 (amino acids 6–125) [8] = molecular target: T5, Mdm2 (amino acids 6–125) (UniProt Q00987 6-125); experiment: as above; conditions: both partners purified
T5 construct: Cloned in pGEX-6P-1; also called Mdm2 N-terminal domain; source: E. coli BL21(DE3) pLysS, purified (GSTrap, on-column PreScission cleavage, Resource S cation exchange)

[9] = molecular target: T6, Mdm4-L98V (amino acids 1–108) (UniProt O15151 1-108, L98V); experiment: as above; conditions: both partners purified
T6 construct: Mdm4 (also known as MdmX), amino acids 1-108, with L98V; also called L98V mutant; source: E. coli BL21(DE3), purified (HisTrap FF)
T6 sequence (looked up): T1 sequence (O15151 1-108) with L98V

Mdm4 (amino acids 1–108) [10] = molecular target: T7, Mdm4 (amino acids 1–108) (UniProt O15151 1-108); experiment: as above; conditions: both partners purified
T7 construct: Mdm4 (also known as MdmX), amino acids 1-108; also called Mdm4-WT; MdmX; source: E. coli BL21(DE3), purified (HisTrap FF)
T7 sequence (looked up): T1 sequence (O15151 1-108)

[11] = molecular target: T6, Mdm4-L98V (amino acids 1–108); experiment: as above; conditions: both partners purified; remark: listed apart in the source
Mdm4 (amino acids 1–108) [12] = molecular target: T7, Mdm4 (amino acids 1–108); experiment: as above; conditions: both partners purified; remark: listed apart in the source

Which results are given for `C=CCCCCCC[C@@](C)(NC(=O)[C@H](Cc1ccccc1)NC(=O)[C@H](CO)NC(=O)[C@@H](NC(C)=O)[C@@H](C)O)C(=O)N[C@@H](CCC(=O)O)C(=O)N[C@@H](Cc1ccc(O)cc1)C(=O)N[C@@H](Cc1c[nH]c2cc(Cl)ccc12)C(=O)N[C@@H](C)C(=O)N[C@@H](CC(C)C)C(=O)N[C@@H](CC(C)C)C(=O)N[C@@](C)(CCCC=C)C(N)=O` [M011-L]?
Reduced binding to Mdm4 of pre-stapled peptide compared to M011 (Mdm4 (amino acids 1–108) [1]): ~ 4 fold; Reduced binding to Mdm2 of pre-stapled peptide compared to M011 (Mdm2 (amino acids 6–125) [2]): ~ 20 fold

For `CC(=O)N[C@H](C(=O)N[C@@H](CO)C(=O)N[C@@H](Cc1ccccc1)C(=O)N[C@]1(C)CCCCCCC=CCCC[C@@](C)(C(N)=O)NC(=O)[C@H](CC(C)C)NC(=O)[C@H](CC(C)C)NC(=O)[C@H](C)NC(=O)[C@H](Cc2c[nH]c3cc(Cl)ccc23)NC(=O)[C@H](Cc2ccc(O)cc2)NC(=O)[C@H](CCC(=O)O)NC1=O)[C@@H](C)O` [M011], which “Binding to Mdm2 over Mdm4 (affinity for Mdm4 reduced compared to Mdm2)” value (Mdm4 (amino acids 1–108) [1]) is on record?
Its value is ~ 50 fold.

And the “Reduced binding to Mdm4 compared to PM2” value (Mdm4 (amino acids 1–108) [1])?
Its value is ~ 3 fold.

And the “Enhanced cellular activity over the parental peptide” value [3]?
The value was ~ 59 fold.

What about the “Increase in Mdm2 binding affinity over the parental peptide” value (Mdm2 (amino acids 6–125) [4]) of the same molecule?
The value was ~ 7 fold.

And the “Increased Mdm2 binding affinity over parental stapled peptide lacking the 6-chloro modification (PM2)” value (Mdm2 (amino acids 6–125) [2])?
Its value is ~ 8 fold.

What about the “More active than M012 in T22 p53 reporter assay” value [5] of the same molecule?
The value was ~ 20%.

What about the “Increase in binding affinity to Mdm4-L98V over binding to Mdm4” value [6] of the same molecule?
The value was ~ 4.6 fold.

Which “Increase in binding affinity to Mdm4-L98V over binding to Mdm4” value [6] does the source give for `CC(=O)N[C@H](C(=O)N[C@@H](CO)C(=O)N[C@@H](Cc1ccccc1)C(=O)N[C@]1(C)CCCCCCC=CCCC[C@@](C)(C(N)=O)NC(=O)[C@H](CC(C)C)NC(=O)[C@H](CC(C)C)NC(=O)[C@H](C)NC(=O)[C@H](Cc2c[nH]c3ccccc23)NC(=O)[C@H](Cc2ccc(O)cc2)NC(=O)[C@H](CCC(=O)O)NC1=O)[C@@H](C)O` [PM2] here?
Its value is ~ 1.4 fold.

Which results are given for `CC(=O)N[C@H](C(=O)N[C@@H](CO)C(=O)N[C@@H](Cc1ccccc1)C(=O)N[C@]1(C)CCCCCCC=CCCC[C@@](C)(C(=O)N[C@@H](CO)C(=O)N[C@@H](C)C(=O)N[C@@H](C)C(N)=O)NC(=O)[C@H](CC(C)C)NC(=O)[C@H](CC(C)C)NC(=O)[C@H](C)NC(=O)[C@H](Cc2c[nH]c3cc(Cl)ccc23)NC(=O)[C@H](Cc2ccc(O)cc2)NC(=O)[C@H](CCC(=O)O)NC1=O)[C@@H](C)O` [VIP160]?
Improved binding to Mdm4 versus M011 (Mdm4 (amino acids 1–108) [1]): ~ 1.7 fold; Change in affinity for Mdm2 versus M011 (Mdm2 (amino acids 6–125) [2]): no change in affinity for Mdm2; Increase in binding affinity to Mdm4-L98V over binding to Mdm4 [6]: ~ 2.5 fold

B1: carboxyfluorescein (FAM) labelled 12–1 peptide (peptide)
peptide: {FAM}-RFMDYWEGL-NH2
notes: 12-1 peptide, tracer of the fluorescence anisotropy assays; also called labelled peptide; source: synthetic peptide
Does B1 bind [7]?
Result: binds

Does B1 bind (Mdm2 (amino acids 6–125) [8])?
Result: binds

Does B1 bind [9]?
Result: binds

Does B1 bind (Mdm4 (amino acids 1–108) [10])?
Result: binds

B2: PM2 stapled peptide (peptide)
chain: TSFXEYWALLL
modifications: not fully specified; N-terminus acetylated; C-terminus amidated; (S)-2-(4′pentenyl) alanine at position 4 and (S)-2-(7′-octenyl) alanine at position 11, fused via olefin metathesis (i, i+7 hydrocarbon linkage)
With B2 as the molecule, how does the Kd [11] read?
The Kd was 72.3 nM.

What about the Kd (Mdm4 (amino acids 1–108) [12]) of the same molecule?
Its Kd is 101 nM.

B3: M011-L, linear precursor of M011 (peptide)
chain: Ac-TSF[S5]EY[Trp(6-Cl)]ALL[S8]-NH2
modifications: bridges not given here
With B3 as the molecule, how does the Kd [11] read?
The Kd was 594 nM.

What about the Kd (Mdm4 (amino acids 1–108) [12]) of the same molecule?
Its Kd is 1390 nM.

B4: M012-L, linear precursor of M012 (peptide)
chain: Ac-TSF[S5]EY[Trp(6-Me)]ALL[S8]-NH2
modifications: bridges not given here; also: Trp(6-Me) not enantiomerically pure
Which Kd [11] does the source give for B4 here?
The Kd was 165 nM.

What about the Kd (Mdm4 (amino acids 1–108) [12]) of the same molecule?
The Kd was 411 nM.

B5: M012 stapled peptide (peptide)
chain: Ac-TSF[S5]EY[Trp(6-Me)]ALL[S8]-NH2
modifications: staple 4-11; also: Trp(6-Me) D/L mixture, not separated
For B5, which Kd [11] is on record?
Its Kd is 385 nM.

B6: M011 stapled peptide (peptide)
chain: TSFXEYWALLL
modifications: not fully specified; N-terminus acetylated; C-terminus amidated; L-6-chlorotryptophan at W23 (p53 numbering); (S)-2-(4′pentenyl) alanine at position 4 and (S)-2-(7′-octenyl) alanine at position 11, fused via olefin metathesis (i, i+7 hydrocarbon linkage)
Which results are given for B6?
Kd [11]: 72.3 nM; Kd (Mdm4 (amino acids 1–108) [12]): 335 nM
